From patent publication US9278958B2, “Anti-cancer compounds” (KATHOLIEKE UNIVERSITEIT LEUVEN, priority 2012, dated 2016)
Where two headings read alike, the source gives them in different places.

Key:
CEM cells = assay: Cytostatic assay, CEM; type: cell-based; conditions: Homo sapiens, CCRF-CEM
Description: (§1) To each well of a 96-well microtiter plate were added 5-7.5×10^4 cells and a given amount of the test compound. The cells were allowed to proliferate for 48 h to 96 h (depending on the nature of the cell line) at 37° C. in a humidified CO2-controlled atmosphere. At the end of the incubation period, the cells were counted in a Coulter Counter (Coulter Electronics Ltd, Harpenden Herts, United Kingdom).

Molt4/C8 cells = assay: Cytostatic assay, Molt4/C8; type: cell-based; conditions: Table 2
Description: as §1

Sup T1 cells = assay: Cytostatic assay, Sup T1; type: cell-based; conditions: Homo sapiens, Table 2, read-out: Cytostatic activity (μM) Sup T 1
Description: as §1

MT-2 cells = assay: Cytostatic assay, MT-2; type: cell-based; conditions: Homo sapiens, MT2; Table 2
Description: as §1

C8166 cells = assay: Cytostatic assay, C8166; type: cell-based; conditions: Homo sapiens, Table 2
Description: as §1

HUT-78 cells = assay: Cytostatic assay, HUT-78; type: cell-based; conditions: Homo sapiens, HuT78; Table 2
Description: as §1

MT-4 cells = assay: Cytostatic assay, MT-4; type: cell-based; conditions: Homo sapiens, MT4; Table 2
Description: as §1

[1] = system: HL60, human leukemia cells; assay: Cytostatic assay, HL-60; type: cell-based; conditions: Table 2
Description: as §1

[2] = system: U937, human monocytic cells; assay: Cytostatic assay, U937; type: cell-based; conditions: U-937, Table 2
Description: as §1

[3] = system: THP-1, human monocytic cells; assay: Cytostatic assay, THP-1; type: cell-based; conditions: Table 2
Description: as §1

[4] = system: Raji, human B-lymphoma cells; assay: Cytostatic assay, Raji; type: cell-based; conditions: Table 2
Description: as §1

[5] = system: OST TK- osteosarcoma cells; assay: Cytostatic assay, OST TK-; type: cell-based; conditions: Homo sapiens; Table 3
Description: as §1

[6] = system: MCF-7 mammary carcinoma cells; assay: Cytostatic assay, MCF-7; type: cell-based; conditions: Homo sapiens, MCF7; Table 3
Description: as §1

[7] = system: FM3A mammary carcinoma cells; assay: Cytostatic assay, FM3A; type: cell-based, murine; conditions: Mus musculus, Table 3
Description: as §1

[8] = system: HeLa cervix carcinoma cells; assay: Cytostatic assay, HeLa; type: cell-based, human; conditions: Homo sapiens; Table 3; read-out: Cytostatic activity (μM) Hela
Description: as §1

[9] = system: Caki-1 kidney carcinoma cells; assay: Cytostatic assay, Caki-1; type: cell-based; conditions: Homo sapiens, Table 3
Description: as §1

[10] = system: Caki-2 kidney carcinoma cells; assay: Cytostatic assay, Caki-2; type: cell-based; conditions: Homo sapiens, Table 3
Description: as §1

[11] = system: 293T embryonic kidney cells; assay: Cytostatic assay, 293T; type: cell-based; conditions: Homo sapiens, HEK-293T; Table 3
Description: as §1

[12] = system: HT29 colorectal carcinoma cells; assay: Cytostatic assay, HT29; type: cell-based; conditions: Homo sapiens, HT-29; Table 3
Description: as §1

U87 glioma cells = assay: Cytostatic assay, U87; type: cell-based; conditions: Homo sapiens, U-87 MG; Table 3
Description: as §1

[13] = system: HEL embryonic lung fibroblast cells; assay: Cytostatic assay, HEL; type: cell-based; conditions: Homo sapiens, Table 3
Description: as §1

[14] = system: BAEC aortic endothelial cells; assay: Cytostatic assay, BAEC; type: cell-based, bovine; conditions: Bos taurus, Table 3
Description: as §1

[15] = system: PC3 (rega) prostate cancer cells; assay: Cytostatic assay, PC3 (rega); type: cell-based; conditions: Table 4
Description: as §1

BPH-1 (UZ) = assay: Cytostatic assay, BPH-1 (UZ); type: cell-based; conditions: Homo sapiens, Table 4
Description: as §1

[16] = system: DU145 (UZ) prostate cancer cells; assay: Cytostatic assay, DU145 (UZ); type: cell-based; conditions: Homo sapiens, DU-145; Table 4
Description: as §1

[17] = system: PC-3 (UZ) prostate cancer cells; assay: Cytostatic assay, PC-3 (UZ); type: cell-based; conditions: Table 4
Description: as §1

[18] = system: LNCaP (UZ) prostate cancer cells; assay: Cytostatic assay, LNCaP (UZ); type: cell-based; conditions: Homo sapiens, Table 4
Description: as §1

[19] = system: PNT1A (UZ) prostate cells; assay: Cytostatic assay, PNT1A (UZ); type: cell-based; conditions: Homo sapiens, Table 4
Description: as §1

[20] = system: 22Rv1 (UZ) prostate cancer cells; assay: Cytostatic assay, 22Rv1 (UZ); type: cell-based; conditions: Homo sapiens, Table 4
Description: as §1

PLC/PRF/5 hepatoma cells = assay: Cytostatic assay, PLC/PRF/5; type: cell-based; conditions: Homo sapiens, Table 4
Description: as §1

HepG2C3A hepatoma cells = assay: Cytostatic assay, HepG2C3A; type: cell-based; conditions: Homo sapiens, HepG2/C3A; Table 4
Description: as §1

Huh-7 hepatoma cells = assay: Cytostatic assay, Huh-7; type: cell-based; conditions: Homo sapiens, Table 4
Description: as §1

L1210 cells = assay: Cytostatic assay, L1210; type: cell-based; conditions: Mus musculus, Table 2
Description: as §1

[21] = Table 1a, read-out: IC50 μM (CEM)
[22] = Table 2, read-out: Cytostatic activity (μM) CEM

| SMILES | IC50 (CEM cells; [21]) [µM] | IC50 (CEM cells; [22]) [µM] | IC50 (Molt4/C8 cells) [µM] | IC50 (Sup T1 cells) [µM] | IC50 (MT-2 cells) [µM] | IC50 (C8166 cells) [µM] | IC50 (HUT-78 cells) [µM] | IC50 (MT-4 cells) [µM] | IC50 [1] [µM] | IC50 [2] [µM] | IC50 [3] [µM] | IC50 [4] [µM] | IC50 [5] [µM] | IC50 [6] [µM] | IC50 [7] [µM] | IC50 [8] [µM] | IC50 [9] [µM] | IC50 [10] [µM] | IC50 [11] [µM] | IC50 [12] [µM] | other results |
| --- | --- | --- | --- | --- | --- | --- | --- | --- | --- | --- | --- | --- | --- | --- | --- | --- | --- | --- | --- | --- | --- |
| COC(=O)c1cc(-c2cc(OC)ccc2OC)sc1N [TR601, 2-Amino-5-(2,5-dimethoxy-phenyl)-thiophene-3-carboxylic acid methyl ester] | 42 | 42 ± 1.4 | 28 ± 6 | 38 ± 25 | 14 ± 2.8 | 102 ± 1.4 | 109 ± 82 | 50 ± 25 | 21 | 85 ± 2.8 | 25 ± 5.7 | 45 ± 11 | 32 ± 18 | 44 ± 28 | 59 ± 11 | 39 ± 9.2 | 8.8 ± 3.1 | 24 ± 9.2 | 43 ± 16 | 42 | IC50 (U87 glioma cells): 25 µM; IC50 [13]: 17 ± 5.7 µM; IC50 [14]: 26 ± 7.1 µM; IC50 [15]: 23 ± 14 µM; IC50 (BPH-1 (UZ)): 31 µM; IC50 [16]: 37 ± 2.1 µM; IC50 [17]: 25 µM; IC50 [18]: 21 ± 8.5 µM; IC50 [19]: 38 ± 5.7 µM; IC50 [20]: 11 ± 4.8 µM; IC50 (PLC/PRF/5 hepatoma cells): 26 ± 0.71 µM; IC50 (HepG2C3A hepatoma cells): 22 ± 18 µM; IC50 (Huh-7 hepatoma cells): 49 ± 19 µM |
| COc1ccc(CCc2cc(C#N)c(N)s2)cc1 [TR586, 2-Amino-5-[2-(4-methoxy-phenyl)-ethyl]-thiophene-3-carbonitrile] | 16 | 16 ± 17 | 1.4 ± 0.8 | 79 ± 42 | 6.8 ± 3.7 | 57 ± 56 | 17 ± 8.1 | 74 ± 37 | 1.9 ± 0.42 | 17 ± 2.8 | 4.3 ± 0.6 | 36 ± 21 | 27 ± 18 | 114 ± 62 | 34 ± 23 | 21 ± 9.9 | 1.9 ± 0.42 | 28 ± 27 | 28 ± 3.5 | 34 ± 6.4 | IC50 (L1210 cells): 14 ± 4 µM; IC50 (U87 glioma cells): > 100 µM; IC50 [13]: > 100 µM; IC50 [14]: 38 ± 2.1 µM; IC50 [15]: 1.8 ± 2 µM; IC50 (BPH-1 (UZ)): 59 ± 18 µM; IC50 [16]: 8.3 ± 2.5 µM; IC50 [17]: 4.2 ± 0.14 µM; IC50 [18]: 0.83 ± 0.35 µM; IC50 [19]: 38 ± 14 µM; IC50 [20]: 17 ± 8.1 µM; IC50 (PLC/PRF/5 hepatoma cells): 37 ± 0.71 µM; IC50 (HepG2C3A hepatoma cells): 46 ± 13 µM; IC50 (Huh-7 hepatoma cells): > 100 µM |
| COC(=O)c1cc(-c2ccccc2OC)sc1N [TR581, 2-Amino-5-(2-methoxy-phenyl)-thiophene-3-carboxylic acid methyl ester] | 55 | 55 | 39 ± 8 | 45 ± 31 | 103 ± 52 | 149 ± 14 | 152 ± 44 | 36 ± 15 | 16 ± 3.5 | 82 ± 7.1 | 69 ± 13 | 59 ± 11 | 45 ± 4.2 | 29 ± 20 | 275 ± 206 | 41 ± 4.9 | 39 ± 2.1 | 28 ± 18 | 72 ± 4.9 | 43 ± 1.4 | IC50 (L1210 cells): 204 ± 85 µM; IC50 (U87 glioma cells): 42 ± 5.7 µM; IC50 [13]: 24 ± 2.1 µM; IC50 [14]: 38 ± 2.1 µM; IC50 [15]: 26 ± 8.5 µM; IC50 (BPH-1 (UZ)): 50 ± 5.7 µM; IC50 [16]: 35 ± 6.4 µM; IC50 [17]: 28 ± 4.9 µM; IC50 [18]: 9.7 ± 5.1 µM; IC50 [19]: 58 ± 13 µM; IC50 [20]: 42 ± 7.6 µM; IC50 (PLC/PRF/5 hepatoma cells): 36 ± 4.2 µM; IC50 (HepG2C3A hepatoma cells): 38 ± 27 µM; IC50 (Huh-7 hepatoma cells): 59 ± 17 µM |
